Measurements reported in paper PMC10847306, “The antibacterial activity and mechanism of a novel peptide MR-22 against multidrug-resistant Escherichia coli” (Frontiers in Cellular and Infection Microbiology, 2024).
Converted amounts (≈) assume the structure as drawn. Values belong to the compound of their own block, whether it stands above or below them.

Key:
Test in all cases: microbe, parasite or virus in culture
[1] = system: E. coli clinical strain E08; settings: for MIC: Escherichia coli, 18 h; for susceptibility category (S/I/R) given with the MIC: strain E08
Protocol: (§1) The clinical strains used in this study were obtained from a tertiary healthcare facility located in Guiyang, a city situated within the Guizhou Province of China. The E. coli ATCC 25922 was obtained from the Key and Characteristic Laboratory of Modern Pathogen Biology at Guizhou Medical University in Guiyang, China. All strains were stored at –80°C in LB medium and routinely cultured at LB medium at 37°C.
(§2) The MIC were determined by a micro dilution method in Mueller-Hinton broth (MHB) ([Cuenca-Estrella et al., 2010]). The final concentration of bacterial suspension in MHB were 1.0×10^6 CFU/mL. The final concentration of MR-22 ranged 1 ~ 256 μg/mL in 96 wells plate broth at 37°C for 16~18 h. Imipenem was employed as positive control, bacterial grown without treatment as negative control and MHB as blank control. MIC determination was performed by reading the OD600 nm. Take 100 μL samples in holes that have never seen bacterial growth and place them on the LB agar board. The concentration of MR-22 with no bacterial growth was defined as the MBC.

[2] = system: E. coli clinical strain E14; settings: for MIC: Escherichia coli, 18 h; for susceptibility category (S/I/R) given with the MIC: strain E14
Protocol: as §1, §2

[3] = system: E. coli clinical strain E12; settings: for MIC: Escherichia coli, 18 h; for susceptibility category (S/I/R) given with the MIC: strain E12
Protocol: as §1, §2

[4] = system: E. coli clinical strain E16; settings: for MIC: Escherichia coli, 18 h; for susceptibility category (S/I/R) given with the MIC: strain E16
Protocol: as §1, §2

[5] = system: E. coli clinical strain E17; settings: for MIC: Escherichia coli, 18 h; for susceptibility category (S/I/R) given with the MIC: strain E17
Protocol: as §1, §2

[6] = system: E. coli clinical strain E04; settings: for MIC: Escherichia coli, 18 h; for susceptibility category (S/I/R) given with the MIC: strain E04
Protocol: as §1, §2

[7] = system: E. coli clinical strain E20; settings: for MIC: Escherichia coli, 18 h; for susceptibility category (S/I/R) given with the MIC: strain E20
Protocol: as §1, §2

[8] = system: E. coli clinical strain E03; settings: for MIC: Escherichia coli, 18 h; for susceptibility category (S/I/R) given with the MIC: strain E03
Protocol: as §1, §2

[9] = system: E. coli clinical strain E07; settings: for MIC: Escherichia coli, 18 h; for susceptibility category (S/I/R) given with the MIC: strain E07
Protocol: as §1, §2

[10] = system: E. coli clinical strain E10; settings: for MIC: Escherichia coli, 18 h; for susceptibility category (S/I/R) given with the MIC: strain E10
Protocol: as §1, §2

[11] = system: E. coli clinical strain E01; settings: for MIC: Escherichia coli, 18 h; for susceptibility category (S/I/R) given with the MIC: strain E01
Protocol: as §1, §2

[12] = system: E. coli clinical strain E09; settings: for MIC: Escherichia coli, 18 h; for susceptibility category (S/I/R) given with the MIC: strain E09
Protocol: as §1, §2

[13] = system: E. coli clinical strain E02; settings: for MIC: Escherichia coli, 18 h; for susceptibility category (S/I/R) given with the MIC: strain E02
Protocol: as §1, §2

[14] = system: E. coli clinical strain E18; settings: for MIC: Escherichia coli, 18 h; for susceptibility category (S/I/R) given with the MIC: strain E18
Protocol: as §1, §2

[15] = system: E. coli clinical strain E19; settings: for MIC: Escherichia coli, 18 h; for susceptibility category (S/I/R) given with the MIC: strain E19
Protocol: as §1, §2

[16] = system: E. coli clinical strain E11; settings: for MIC: Escherichia coli, 18 h; for susceptibility category (S/I/R) given with the MIC: strain E11
Protocol: as §1, §2

[17] = system: E. coli clinical strain E13; settings: for MIC: Escherichia coli, 18 h; for susceptibility category (S/I/R) given with the MIC: strain E13
Protocol: as §1, §2

[18] = system: E. coli clinical strain E05; settings: for MIC: Escherichia coli, 18 h; for susceptibility category (S/I/R) given with the MIC: strain E05
Protocol: as §1, §2

[19] = system: E. coli clinical strain E06; settings: for MIC: Escherichia coli, 18 h; for susceptibility category (S/I/R) given with the MIC: strain E06
Protocol: as §1, §2

[20] = system: E. coli clinical strain E15; settings: for MIC: Escherichia coli, 18 h; for susceptibility category (S/I/R) given with the MIC: strain E15
Protocol: as §1, §2

[21] = system: E. coli clinical strain E21; settings: for MIC: Escherichia coli, 18 h; for susceptibility category (S/I/R) given with the MIC: strain E21
Protocol: as §1, §2

[22] = system: E. coli clinical strain E22; settings: for MIC: Escherichia coli, 18 h; for susceptibility category (S/I/R) given with the MIC: strain E22
Protocol: as §1, §2

E. coli ATCC 25922 = settings: for susceptibility category (S/I/R) given with the MIC: E. coli ATCC 25922; for MIC: Escherichia coli, ATCC25922, 18 h
Protocol: as §2

SMILES: CN(C)[C@@H]1C(O)=C(C(N)=O)C(=O)[C@@]2(O)C(O)=C3C(=O)c4c(O)cccc4[C@@](C)(O)[C@H]3C[C@@H]12 [TET, tetracycline]
- MIC [1]: > 8 µg/mL
- susceptibility category (S/I/R) given with the MIC [1]: R
- MIC [2]: > 8 µg/mL
- susceptibility category (S/I/R) given with the MIC [2]: R
- MIC [3]: > 8 µg/mL
- susceptibility category (S/I/R) given with the MIC [3]: R
- MIC [4]: ≤ 0.5 µg/mL
- susceptibility category (S/I/R) given with the MIC [4]: S
- MIC [5]: ≤ 0.5 µg/mL
- susceptibility category (S/I/R) given with the MIC [5]: S
- MIC [6]: > 8 µg/mL
- susceptibility category (S/I/R) given with the MIC [6]: R
- MIC [7]: ≤ 0.5 µg/mL
- susceptibility category (S/I/R) given with the MIC [7]: S
- MIC [8]: > 8 µg/mL
- susceptibility category (S/I/R) given with the MIC [8]: R
- MIC [9]: > 8 µg/mL
- susceptibility category (S/I/R) given with the MIC [9]: R
- MIC [10]: ≤ 0.5 µg/mL
- susceptibility category (S/I/R) given with the MIC [10]: S
- MIC [11]: ≤ 0.5 µg/mL
- susceptibility category (S/I/R) given with the MIC [11]: S
- MIC [12]: > 8 µg/mL
- susceptibility category (S/I/R) given with the MIC [12]: R
- MIC [13]: > 8 µg/mL
- susceptibility category (S/I/R) given with the MIC [13]: R
- MIC [14]: ≤ 0.5 µg/mL
- susceptibility category (S/I/R) given with the MIC [14]: S
- MIC [15]: ≤ 0.5 µg/mL
- susceptibility category (S/I/R) given with the MIC [15]: S
- MIC [16]: > 8 µg/mL
- susceptibility category (S/I/R) given with the MIC [16]: R
- MIC [17]: ≤ 0.5 µg/mL
- susceptibility category (S/I/R) given with the MIC [17]: S
- MIC [18]: > 8 µg/mL
- susceptibility category (S/I/R) given with the MIC [18]: R
- MIC [19]: > 8 µg/mL
- susceptibility category (S/I/R) given with the MIC [19]: R
- MIC [20]: ≤ 0.5 µg/mL
- susceptibility category (S/I/R) given with the MIC [20]: S
- MIC [21]: ≤ 0.5 µg/mL
- susceptibility category (S/I/R) given with the MIC [21]: S
- MIC [22]: ≤ 0.5 µg/mL
- susceptibility category (S/I/R) given with the MIC [22]: S
- susceptibility category (S/I/R) given with the MIC (E. coli ATCC 25922): S
- MIC (E. coli ATCC 25922): ≤ 0.5 µg/mL

- MIC [1]: ≤ 0.5 µg/mL
- susceptibility category (S/I/R) given with the MIC [1]: S
- MIC [2]: > 8 µg/mL
- susceptibility category (S/I/R) given with the MIC [2]: R
- MIC [3]: > 8 µg/mL
- susceptibility category (S/I/R) given with the MIC [3]: R
- MIC [4]: 1 µg/mL (≈ 2.77 µM)
- susceptibility category (S/I/R) given with the MIC [4]: I
- MIC [5]: > 8 µg/mL
- susceptibility category (S/I/R) given with the MIC [5]: R
- MIC [6]: > 8 µg/mL
- susceptibility category (S/I/R) given with the MIC [6]: R
- MIC [7]: > 8 µg/mL
- susceptibility category (S/I/R) given with the MIC [7]: R
- MIC [8]: 8 µg/mL (≈ 22.1 µM)
- susceptibility category (S/I/R) given with the MIC [8]: R
- MIC [9]: ≤ 0.5 µg/mL
- susceptibility category (S/I/R) given with the MIC [9]: S
- MIC [10]: ≤ 0.5 µg/mL
- susceptibility category (S/I/R) given with the MIC [10]: S
- MIC [11]: ≤ 0.5 µg/mL
- susceptibility category (S/I/R) given with the MIC [11]: S
- MIC [12]: 8 µg/mL (≈ 22.1 µM)
- susceptibility category (S/I/R) given with the MIC [12]: R
- MIC [13]: ≤ 0.5 µg/mL
- susceptibility category (S/I/R) given with the MIC [13]: S
- MIC [14]: > 8 µg/mL
- susceptibility category (S/I/R) given with the MIC [14]: R
- MIC [15]: > 8 µg/mL
- susceptibility category (S/I/R) given with the MIC [15]: R
- MIC [16]: ≤ 0.5 µg/mL
- susceptibility category (S/I/R) given with the MIC [16]: S
- MIC [17]: ≤ 0.5 µg/mL
- susceptibility category (S/I/R) given with the MIC [17]: S
- MIC [18]: ≤ 0.5 µg/mL
- susceptibility category (S/I/R) given with the MIC [18]: S
- MIC [19]: 8 µg/mL (≈ 22.1 µM)
- susceptibility category (S/I/R) given with the MIC [19]: R
- MIC [20]: 0.5 µg/mL (≈ 1.38 µM)
- susceptibility category (S/I/R) given with the MIC [20]: S
- MIC [21]: ≤ 0.5 µg/mL
- susceptibility category (S/I/R) given with the MIC [21]: S
- MIC [22]: > 8 µg/mL
- susceptibility category (S/I/R) given with the MIC [22]: R
- susceptibility category (S/I/R) given with the MIC (E. coli ATCC 25922): S
- MIC (E. coli ATCC 25922): ≤ 0.5 µg/mL
SMILES: C[C@H]1COc2c(N3CCN(C)CC3)c(F)cc3c(=O)c(C(=O)O)cn1c23 [LEV, levofloxacin]

- MIC [1]: ≤ 2 µg/mL
- susceptibility category (S/I/R) given with the MIC [1]: S
- MIC [2]: 16 µg/mL (≈ 33.3 µM)
- susceptibility category (S/I/R) given with the MIC [2]: R
- MIC [3]: 4 µg/mL (≈ 8.32 µM)
- susceptibility category (S/I/R) given with the MIC [3]: I
- MIC [4]: ≤ 2 µg/mL
- susceptibility category (S/I/R) given with the MIC [4]: S
- MIC [5]: ≤ 2 µg/mL
- susceptibility category (S/I/R) given with the MIC [5]: S
- MIC [6]: > 16 µg/mL
- susceptibility category (S/I/R) given with the MIC [6]: R
- MIC [7]: 16 µg/mL (≈ 33.3 µM)
- susceptibility category (S/I/R) given with the MIC [7]: R
- MIC [8]: 16 µg/mL (≈ 33.3 µM)
- susceptibility category (S/I/R) given with the MIC [8]: R
- MIC [9]: > 16 µg/mL
- susceptibility category (S/I/R) given with the MIC [9]: R
- MIC [10]: 16 µg/mL (≈ 33.3 µM)
- susceptibility category (S/I/R) given with the MIC [10]: R
- MIC [11]: ≤ 2 µg/mL
- susceptibility category (S/I/R) given with the MIC [11]: S
- MIC [12]: ≤ 2 µg/mL
- susceptibility category (S/I/R) given with the MIC [12]: S
- MIC [13]: > 16 µg/mL
- susceptibility category (S/I/R) given with the MIC [13]: R
- MIC [14]: 16 µg/mL (≈ 33.3 µM)
- susceptibility category (S/I/R) given with the MIC [14]: R
- MIC [15]: 16 µg/mL (≈ 33.3 µM)
- susceptibility category (S/I/R) given with the MIC [15]: R
- MIC [16]: > 16 µg/mL
- susceptibility category (S/I/R) given with the MIC [16]: R
- MIC [17]: ≤ 2 µg/mL
- susceptibility category (S/I/R) given with the MIC [17]: S
- MIC [18]: > 16 µg/mL
- susceptibility category (S/I/R) given with the MIC [18]: R
- MIC [19]: > 16 µg/mL
- susceptibility category (S/I/R) given with the MIC [19]: R
- MIC [20]: ≤ 2 µg/mL
- susceptibility category (S/I/R) given with the MIC [20]: S
- MIC [21]: 16 µg/mL (≈ 33.3 µM)
- susceptibility category (S/I/R) given with the MIC [21]: R
- MIC [22]: ≥ 32 µg/mL
- susceptibility category (S/I/R) given with the MIC [22]: R
- susceptibility category (S/I/R) given with the MIC (E. coli ATCC 25922): S
- MIC (E. coli ATCC 25922): ≤ 2 µg/mL
SMILES: CO/N=C(\C(=O)N[C@@H]1C(=O)N2C(C(=O)[O-])=C(C[N+]3(C)CCCC3)CS[C@H]12)c1csc(N)n1 [FEP, cefepime]
